# According to PMC5484173, “CB1 Allosteric Modulator Org27569 Is an Antagonist/Inverse Agonist of ERK1/2 Signaling” (Cannabis and Cannabinoid Research, 2016):
# Where “and” joins values, the source holds several entries; their conditions need not be identical. Equal values may be shown once. Entries after “also recorded” stand apart in the source; their conditions may differ. Read-outs that look alike come from different tables or passages of the source.
# Experiments:
# [1] = target: T1, human cannabinoid type-1 receptor (hCB1) (Homo sapiens, UniProt P21554); format: cell-based
# T1 construct: expressed in transfected cells
# CB1 = tested on: CB1; design: method as in PMID 26044547; conditions: Chinese hamster ovary cells, AlphaScreen SureFire kit; cited from earlier work
# GFP-rat CB1 receptor = target: T2, GFP-rat CB1 receptor (Rattus norvegicus, UniProt P20272); assay: Receptor internalization (puncta count) in GFP-rat CB1 HEK293 cells; format: cell-based; conditions: 20-120 min
# T2 construct: expressed in transfected cells
# Description: (§1) Vendor authenticated human embryonic kidney (HEK293; American Type Culture Collection, Rockville, MD) cells were cultured in 5% fetal bovine serum (FBS) defined (Hyclone Labs, Logan, UT) in Dulbecco's modified Eagle's medium (DMEM; Corning Cellgro, Manassas, VA) at 37°C and 5% CO2. Cell lines were generated as previously described[32] by transfection of the untagged hCB1 or N-terminally green fluorescent protein (GFP)-tagged rat CB1 receptor with Lipofectamine 2000 (Life Technologies, Gaithersburg, MD). Cells were maintained in a culture medium with geneticin (0.5 mg/mL; G418) and not used after 25 passages.
# (§2) Cells were plated in poly-D-lysine (PDL)-coated 6-well plates or 100-mm dishes (for fractionation experiments) to a confluency of ∼70–80% and serum starved for 24 h before all treatments. For internalization experiments, cells were plated on PDL-coated cover-slips in a 24-well format. For experiments examining Gi/o protein mediation, cells were exposed to PTX (200 ng/mL) for 18 h before drug treatment when appropriate.
# For internalization experiments, GFP-rat CB1 HEK293 cells were plated on PDL-coated cover-slips in the 24-well format and treated with vehicle (0.2% DMSO), CP55,940 (1 μM), Org27569 (10 μM), or both for 20–120 min. Cell images were taken blinded, converted to grayscale in Photoshop CS5, and then analyzed in ImageJ. Background was subtracted by using a “rolling ball” algorithm (rolling=3). Puncta within the range (size=3–400, circularity=0.01–1.00) were counted. These parameters were used based on image resolution and brightness. The same conditions were applied to all the images and image analyses.
# [2] = tested on: hCB1-untransfected HEK293 cells; assay: phospho-ERK1/2 western blot in hCB1-untransfected HEK293 cells; format: cell-based, human; conditions: Org27569 10 μM, 20-min treatment
# Description: as §1, with “passages. […]” for “passages.”
# Protein amount (20 μg) was determined by the Bradford method, separated by 10% SDS-PAGE, and transferred to nitrocellulose membranes. […]
# Membranes were rinsed thrice in 0.1% Tween-20 in PBS before incubating with LiCor secondary antibodies (IRDye® 800CW Goat anti-Mouse; 1:6666; IRDye 680RD Goat anti-Rabbit; 1:10,000) at room temperature for 1 h. Blots were imaged using LiCor Odyssey imaging software, and phospho-ERK signal was normalized to total ERK and data expressed as percent of vehicle control. […]
# Data were normalized as percent vehicle control and analyzed by one- or two-way ANOVA with Newman–Keuls and Bonferroni post hoc tests, and data were considered significant with p<0.05. […]
# [3] = target: T1, human cannabinoid type-1 receptor (hCB1); assay: Subcellular fractionation: phospho-ERK in nuclear-enriched and cytosolic fractions of hCB1 HEK293 cells; format: cell-based; conditions: Org27569 10 μM, 20 min, normalized to beta-actin
# Description: as §2
# Cells were treated by application of vehicle or antagonist followed immediately by application of vehicle or agonist and incubated in serum-free DMEM at 37°C for times indicated, then washed once with ice-cold phosphate-buffered saline (PBS), and lysed with buffer containing HEPES (50 mM), NaCl (150 mM), EDTA (1 mM), EGTA (1 mM), glycerol (10%), Triton X-100 (1%), MgCl2 (10 μM), NaF (25 mM), Na3VO4 (1 mM), para-nitrophenyl phosphate (20 mM) and EDTA-free protease inhibitor. Lysates were incubated on ice for 30 min, then centrifuged at 16,000 g for 30 min at 4°C, and supernatants were collected.
# Cells were grown and treated as described above on 100-mm dishes and washed once with ice-cold PBS. […]
# The initial S1 fraction was centrifuged at 10,000 g for 10 min and the resulting S2 fraction served as the cytosolic/membrane fraction. Protein was determined by the NanoDrop™ A280 assay (Thermo Scientific, Wilmington, DE). […]
# T1 sequence (P21554 whole entry): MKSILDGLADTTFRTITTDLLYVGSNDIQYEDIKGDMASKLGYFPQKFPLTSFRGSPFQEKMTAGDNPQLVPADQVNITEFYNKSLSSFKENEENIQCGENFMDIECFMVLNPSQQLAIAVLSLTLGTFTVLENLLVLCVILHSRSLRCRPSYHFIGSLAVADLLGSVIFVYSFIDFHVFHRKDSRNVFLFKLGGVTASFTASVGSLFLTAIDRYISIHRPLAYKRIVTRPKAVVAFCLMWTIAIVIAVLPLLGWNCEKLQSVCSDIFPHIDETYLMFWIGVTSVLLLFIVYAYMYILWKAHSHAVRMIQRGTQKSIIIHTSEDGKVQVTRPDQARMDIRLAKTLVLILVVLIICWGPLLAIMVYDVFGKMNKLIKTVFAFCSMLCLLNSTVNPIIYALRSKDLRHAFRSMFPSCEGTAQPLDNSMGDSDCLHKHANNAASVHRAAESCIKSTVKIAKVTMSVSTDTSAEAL
# T2 sequence (P20272 whole entry): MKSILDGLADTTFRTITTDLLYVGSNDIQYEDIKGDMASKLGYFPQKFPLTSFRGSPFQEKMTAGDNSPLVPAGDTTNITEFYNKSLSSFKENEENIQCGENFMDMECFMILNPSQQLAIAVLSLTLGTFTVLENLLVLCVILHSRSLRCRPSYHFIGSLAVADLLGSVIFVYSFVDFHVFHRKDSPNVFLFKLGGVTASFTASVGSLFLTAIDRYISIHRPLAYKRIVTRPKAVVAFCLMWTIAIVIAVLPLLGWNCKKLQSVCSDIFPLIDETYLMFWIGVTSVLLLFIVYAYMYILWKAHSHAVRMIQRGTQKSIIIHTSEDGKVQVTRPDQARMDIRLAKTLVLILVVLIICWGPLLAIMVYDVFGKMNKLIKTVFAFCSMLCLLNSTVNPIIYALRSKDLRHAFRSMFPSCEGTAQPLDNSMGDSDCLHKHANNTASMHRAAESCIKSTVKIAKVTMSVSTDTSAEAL
smiles,measurement,setting,value
"CCCCC/C=C\C/C=C\C/C=C\C/C=C\CCCC(=O)OC(CO)CO [2-AG, 2-arachidonoylglycerol]",EC80 for ERK activation,"[1]; agonist alone, hCB1 HEK293 cells, 5 min",1.2 µM
CCc1c(C(=O)NCCc2ccc(N3CCCCC3)cc2)[nH]c2ccc(Cl)cc12 [Org27569],"bottom of the fit curve (phospho-ERK, percent of vehicle control)",[1],111.3%±7.72%
same,"effect on CP55,940-induced activation of ERK",[1],"prevented CP55,940-induced activation of ERK"
same,extent of antagonism of 2-AG-stimulated ERK activation,[1],did not completely attenuate
same,"extent of antagonism of CP55,940-induced ERK activation",[1],fully antagonized
same,extent of antagonism of THC-induced ERK activation,[1],did not completely attenuate
same,pIC50±SE on ERK phosphorylation,[1],6.78±0.273 and 6.783±0.273
same,"effect on ERK phosphorylation, compound alone","[1]; 10.0 μM alone, 5-min incubation",small but nonsignificant reduction of ERK phosphorylation
same,effect on phospho-ERK levels in PTX-treated cells,"[1]; Org27569 10.0 μM, 20 min, after overnight PTX (200 ng/mL)",not in PTX-treated cells
same,effect on basal ERK phosphorylation,"[1]; Org27569 alone (10 μM), 20-min treatment, hCB1-transfected HEK293 cells, no PTX",significantly reduced basal ERK phosphorylation; also recorded: reduced basal ERK phosphorylation in hCB1-transfected; also recorded: produced a reduction in phospho-ERK levels in control cells
same,"bottom of the fit curve (phospho-ERK, percent of vehicle control)","[1]; Org27569 concentration-response against 2-AG at EC80 (1.2 μM), 5 min",196%±123.2%
same,pIC50±SE on ERK phosphorylation,"[1]; no probe agonist (alone, basal ERK phosphorylation), 20 min",6.86±0.214
same,IC50,"[1]; no probe agonist (alone, basal ERK phosphorylation), cells treated for 20 min",0.139 µM
same,pIC50±SE on ERK phosphorylation,"[1]; probe agonist 2-AG (1.2 μM, EC80), 5 min",6.26±0.239
same,IC50,"[1]; probe agonist 2-AG (1.2 μM, EC80), cells treated for 5 min, read-out: IC50 on ERK phosphorylation",0.546 µM
same,pIC50±SE on ERK phosphorylation,"[1]; probe agonist THC (494 nM in table, 500 nM in text; EC80), 5 min",6.38±0.394
same,IC50,"[1]; probe agonist THC (494 nM, EC80), cells treated for 5 min, read-out: IC50 on ERK phosphorylation",0.417 µM
same,IC50,[1]; read-out: IC50 on ERK phosphorylation,0.165 µM
same,effect on THC-induced ERK activation,CB1,no effect
same,"receptor internalization, compound alone",GFP-rat CB1 receptor; Org27569 10 μM alone,did not significantly affect receptor internalization
same,"effect on CP55,940-induced receptor internalization (increases in puncta)","GFP-rat CB1 receptor; Org27569 10 μM with CP55,940 1 μM",prevented
same,effect on basal ERK phosphorylation,[2],not in hCB1-untransfected HEK293 cells
same,effect on cytosolic phospho-ERK levels,[3]; cytosolic fraction,significantly decreased
same,effect on nuclear phospho-ERK levels,[3]; nuclear-enriched fraction,significantly decreased
"CCCCCCC(C)(C)c1ccc([C@@H]2C[C@H](O)CC[C@H]2CCCO)c(O)c1 [CP55,940]",EC80 for ERK activation,[1],0.0061 µM
same,"effect on ERK phosphorylation, agonist alone",[1],robust increase in ERK phosphorylation
same,"receptor internalization (puncta), agonist alone","GFP-rat CB1 receptor; CP55,940 1 μM",increases in puncta
